Experimental data taken from patent publication US8124382B2, “Methods, microarray, and kits for detection of drug resistance genes in gram-negative bacteria” (CapitalBio Corporation, priority 2006, dated 2012).

Assays:
Experiment in all cases: in vitro antimicrobial susceptibility test (MIC, CLSI standard method)
E. cloacae TR3104 = assay type: cell-based; conditions: strain TR3104; for The in vitro antimicrobial susceptibility test/MIC: CLA at fixed concentration 4 μg/ml in combinations
Experimental: (§1) Three gram-negative bacteria in Table 3 were tested. The in vitro antimicrobial susceptibility result was obtained according to the standard method of Clinical and Laboratory Standards Institute (CLSI).
(§2) The resistance genes in E. cloacae TR3104 were detected using the microarray in FIG. 1 according to the method in example 1. […] Thus the kit for detection of resistance genes in gram-negative bacteria in the present invention can be used to specifically detect the resistance genes in the prevalent gram-negative bacteria E. cloacae.

E. coli Z302 = assay type: cell-based; conditions: for The in vitro antimicrobial susceptibility test/MIC: strain Z302 (E. coli), CLA at fixed concentration 4 μg/ml in combinations
Experimental: as §1
as §2, with “coli Z302” for “cloacae TR3104”, “Example” for “example”, “coli.” for “cloacae.”

K. pneumoniae BJ-35 = assay type: cell-based, Klebsiella pneumoniae; conditions: for The in vitro antimicrobial susceptibility test/MIC: strain BJ-35 (K. pneumoniae), CLA at fixed concentration 4 μg/ml in combinations
Experimental: as §1

K. pneumoniae BJ-7 = assay type: cell-based, Klebsiella pneumoniae; conditions: for The in vitro antimicrobial susceptibility test/MIC: strain BJ-7 (K. pneumoniae), CLA at fixed concentration 4 μg/ml in combinations
Experimental: as §1

K. pneumoniae E298 = assay type: cell-based, Klebsiella pneumoniae; conditions: for The in vitro antimicrobial susceptibility test/MIC: strain E298 (K. pneumoniae), CLA at fixed concentration 4 μg/ml in combinations
Experimental: as §1

[1] = strain Z302, shown by microarray-detected genes, consistent with MIC results
[2] = strain BJ-35, shown by microarray-detected genes, consistent with MIC results
[3] = strain BJ-7, shown by microarray-detected genes, consistent with MIC results
[4] = strain E298, shown by microarray-detected genes, consistent with MIC results

The in vitro antimicrobial susceptibility test/MIC (E. cloacae TR3104)	The in vitro antimicrobial susceptibility test/MIC (E. coli Z302)	The in vitro antimicrobial susceptibility test/MIC (K. pneumoniae E298)	SMILES	The in vitro antimicrobial susceptibility test/MIC (K. pneumoniae BJ-35) [µg/mL]	The in vitro antimicrobial susceptibility test/MIC (K. pneumoniae BJ-7) [µg/mL]	resistance or susceptibility of the isolate (E. cloacae TR3104; shown by microarray-detected genes, consistent with MIC results)	resistance or susceptibility of the isolate (E. coli Z302; [1])	resistance or susceptibility of the isolate (K. pneumoniae BJ-35; [2])	resistance or susceptibility of the isolate (K. pneumoniae BJ-7; [3])	resistance or susceptibility of the isolate (K. pneumoniae E298; [4])	inhibition of the isolate's resistance by clavulanate (E. coli Z302; [1])	inhibition of the isolate's resistance by clavulanate (K. pneumoniae BJ-35; [2])	inhibition of the isolate's resistance by clavulanate (K. pneumoniae BJ-7; [3])	inhibition of the isolate's resistance by clavulanate (K. pneumoniae E298; [4])
4 µg/mL	4 µg/mL	<0.5 µg/mL	C[C@@H](O)[C@H]1C(=O)N2C(C(=O)O)=C(SCCN=CN)C[C@H]12 [IMP, imipenem]	<0.5	<0.5									
			O=C(O)[C@H]1/C(=C/CO)O[C@@H]2CC(=O)N21 [clavulanate]								not inhibited	inhibited	inhibited	not inhibited
64 µg/mL	≧128 μg/ml	≧128 μg/ml	CO/N=C(\C(=O)N[C@@H]1C(=O)N2C(C(=O)O)=C(COC(C)=O)CS[C@H]12)c1csc(N)n1 [CTX, cefotaxime]	8	64									
4 µg/mL	≧128 μg/ml	≧128 μg/ml	CC(C)(O/N=C(\C(=O)N[C@@H]1C(=O)N2C(C(=O)[O-])=C(C[n+]3ccccc3)CS[C@H]12)c1csc(N)n1)C(=O)O [CAZ, ceftazidime]	4	32									

SMILES	The in vitro antimicrobial susceptibility test/MIC (E. cloacae TR3104)	The in vitro antimicrobial susceptibility test/MIC (E. coli Z302)	The in vitro antimicrobial susceptibility test/MIC (K. pneumoniae E298)	The in vitro antimicrobial susceptibility test/MIC (K. pneumoniae BJ-35) [µg/mL]	The in vitro antimicrobial susceptibility test/MIC (K. pneumoniae BJ-7) [µg/mL]	resistance or susceptibility of the isolate (E. cloacae TR3104; shown by microarray-detected genes, consistent with MIC results)	resistance or susceptibility of the isolate (E. coli Z302; [1])	resistance or susceptibility of the isolate (K. pneumoniae BJ-35; [2])	resistance or susceptibility of the isolate (K. pneumoniae BJ-7; [3])	resistance or susceptibility of the isolate (K. pneumoniae E298; [4])	inhibition of the isolate's resistance by clavulanate (E. coli Z302; [1])	inhibition of the isolate's resistance by clavulanate (K. pneumoniae BJ-35; [2])	inhibition of the isolate's resistance by clavulanate (K. pneumoniae BJ-7; [3])	inhibition of the isolate's resistance by clavulanate (K. pneumoniae E298; [4])
CO[C@@]1(NC(=O)Cc2cccs2)C(=O)N2C(C(=O)O)=C(COC(N)=O)CS[C@@H]21 [FOX, cefoxitin]	≧256 μg/ml	≧128 μg/ml	≧128 μg/ml	2	8	resistant	resistant	susceptible	susceptible	resistant				
